The nature of series [1]: Cytotoxicity against rat H4G1.1c3 cells at 10 to 50 uM after 24 hr. It counts as cell-based.
In series [2] the target is T1, Aryl hydrocarbon receptor (Homo sapiens, UniProt P35869).
T1 sequence (P35869 whole entry): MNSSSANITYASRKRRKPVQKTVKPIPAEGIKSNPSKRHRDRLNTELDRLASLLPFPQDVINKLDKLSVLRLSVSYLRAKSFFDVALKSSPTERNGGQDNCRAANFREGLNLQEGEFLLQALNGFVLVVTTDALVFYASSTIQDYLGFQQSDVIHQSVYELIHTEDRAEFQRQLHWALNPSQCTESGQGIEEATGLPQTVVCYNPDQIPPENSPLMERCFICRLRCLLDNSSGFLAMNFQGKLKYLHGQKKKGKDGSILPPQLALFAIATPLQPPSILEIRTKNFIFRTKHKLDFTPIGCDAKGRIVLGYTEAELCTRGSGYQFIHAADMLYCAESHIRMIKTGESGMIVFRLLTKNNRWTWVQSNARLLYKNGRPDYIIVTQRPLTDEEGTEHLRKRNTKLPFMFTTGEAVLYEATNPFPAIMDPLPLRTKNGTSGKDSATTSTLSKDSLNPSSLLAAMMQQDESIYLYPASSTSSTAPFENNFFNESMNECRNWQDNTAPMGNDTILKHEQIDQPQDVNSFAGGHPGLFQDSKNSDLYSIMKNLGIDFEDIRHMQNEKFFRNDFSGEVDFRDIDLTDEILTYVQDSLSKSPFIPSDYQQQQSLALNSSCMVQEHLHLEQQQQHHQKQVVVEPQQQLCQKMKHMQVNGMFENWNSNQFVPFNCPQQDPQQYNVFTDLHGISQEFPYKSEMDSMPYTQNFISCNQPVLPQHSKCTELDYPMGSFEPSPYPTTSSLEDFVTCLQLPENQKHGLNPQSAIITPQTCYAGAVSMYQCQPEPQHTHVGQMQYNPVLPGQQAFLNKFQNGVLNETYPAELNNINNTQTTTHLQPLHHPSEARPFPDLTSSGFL
The series is described as follows: Binding affinity to full length N-terminal GFP-fused Homo sapiens (human) aryl hydrocarbon receptor ligand binding domain (848 amino acid residues) expressed in baculovirus infected Sf9 cells assessed as fluorescence quenching at 10 uM up to 30 min by fluorescence microscopic analysis. The settings on record: sf9, 0.5 h.

For series [3], the target named is T1, Aryl hydrocarbon receptor. Description: Binding affinity to aryl hydrocarbon receptor in Homo sapiens (human) Hep3B cells assessed as upregulation of DRE-driven luciferase expression at 10 uM after 6 hr by Western blot analysis relative to control. In kind it is cell-based, Hep 3B2. The settings on record: Hep3B cells with DRE-driven luciferase reporter, read-out: FC. Background: A western blot detects proteins with antibodies after separation by electrophoresis.

The target in series [4] is T2, Aryl hydrocarbon receptor (Rattus norvegicus, UniProt P41738).
T2 sequence (P41738 whole entry): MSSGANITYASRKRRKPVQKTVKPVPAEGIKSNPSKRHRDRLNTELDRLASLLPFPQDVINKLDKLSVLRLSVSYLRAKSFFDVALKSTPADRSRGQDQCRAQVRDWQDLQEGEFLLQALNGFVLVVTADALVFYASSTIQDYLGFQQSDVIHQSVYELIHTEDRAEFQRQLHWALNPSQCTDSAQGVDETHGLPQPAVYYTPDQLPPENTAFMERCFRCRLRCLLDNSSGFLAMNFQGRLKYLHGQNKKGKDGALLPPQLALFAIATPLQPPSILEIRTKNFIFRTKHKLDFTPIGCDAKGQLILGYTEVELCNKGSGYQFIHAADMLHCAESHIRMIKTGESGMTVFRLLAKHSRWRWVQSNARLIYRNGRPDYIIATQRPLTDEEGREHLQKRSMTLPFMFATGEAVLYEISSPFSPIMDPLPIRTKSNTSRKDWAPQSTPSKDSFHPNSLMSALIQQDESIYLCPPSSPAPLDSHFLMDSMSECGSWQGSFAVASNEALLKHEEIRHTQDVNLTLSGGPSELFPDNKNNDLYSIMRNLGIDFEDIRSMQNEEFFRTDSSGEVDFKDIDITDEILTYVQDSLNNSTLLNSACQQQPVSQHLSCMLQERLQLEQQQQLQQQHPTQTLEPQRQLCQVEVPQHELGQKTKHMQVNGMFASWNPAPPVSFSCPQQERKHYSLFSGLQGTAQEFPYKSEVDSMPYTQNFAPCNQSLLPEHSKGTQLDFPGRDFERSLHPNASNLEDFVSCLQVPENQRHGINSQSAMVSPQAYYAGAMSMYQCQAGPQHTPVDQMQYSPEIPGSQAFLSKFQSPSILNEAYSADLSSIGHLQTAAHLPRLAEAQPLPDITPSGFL
Description: Partial agonist activity at DRE-driven GFP-fused AhR ligand binding domain in rat H4G1.1c3 cells assessed as induction of DRE-driven GFP expression at 50 uM after 48 hr by fluorescence assay. In kind it is cell-based.

Series [5] has as its target T1, Aryl hydrocarbon receptor. Description: Competitive binding affinity to aryl hydrocarbon receptor in Homo sapiens (human) Hep3B cells assessed as supression of betaNF-mediated DRE-driven luciferase expression at 10 uM after 6 hr by Western blot analysis relative to control. It counts as cell-based. The settings on record: hep 3b2, 6 h.
In series [6] the target is T1, Aryl hydrocarbon receptor. Description: Binding affinity to full length N-terminal GFP-fused Homo sapiens (human) aryl hydrocarbon receptor ligand binding domain (848 amino acid residues) expressed in baculovirus infected Sf9 cells assessed as fluorescence quenching at 10 uM after 5 min by fluorescence microscopic analysis. The settings on record: sf9, 5 min.
Series [7] concerns the target T1, Aryl hydrocarbon receptor. The series is described as follows: Binding affinity to full length N-terminal GFP-fused Homo sapiens (human) aryl hydrocarbon receptor ligand binding domain (848 amino acid residues) expressed in baculovirus infected Sf9 cells assessed as fluorescence quenching at 10 uM after 10 min by fluorescence microscopic analysis. To be noted: sf9, 10 min.

In series [8] the target is T2, Aryl hydrocarbon receptor. Description: Agonist activity at DRE-driven GFP-fused AhR ligand binding domain in rat H4G1.1c3 cells assessed as induction of DRE-driven GFP expression at 10 uM after 48 hr by fluorescence assay. It counts as cell-based.
In series [9] the target is T1, Aryl hydrocarbon receptor. Description: Competitive binding affinity to full length N-terminal GFP-fused Homo sapiens (human) aryl hydrocarbon receptor ligand binding domain (848 amino acid residues) expressed in baculovirus infected Sf9 cells assessed as reversal of betaNFQ-mediated fluorescence quenching at 5 uM measured at 5 min by fluorescence microscopic analysis. The settings on record: sf9, 5 min.

The target of series [10] is T1, Aryl hydrocarbon receptor. The series is described as follows: Competitive binding affinity to full length N-terminal GFP-fused Homo sapiens (human) aryl hydrocarbon receptor ligand binding domain (848 amino acid residues) expressed in baculovirus infected Sf9 cells assessed as reversal of 4-((4-(dimethylamino)phenyl)diazenyl)-N-(2-(2-(2-(2-hydroxyethoxy)ethoxy)ethoxy)ethyl)benzamide4-((4-(dimethylamino)phenyl)diazenyl)-N-(2-(2-(2-(2-hydroxyethoxy)ethoxy)ethoxy)ethyl)benzamide-mediated fluorescence quenching at 5 uM measured at 5 min by fluorescence microscopic analysis. The settings on record: sf9, 5 min.

In series [11] the target is T1, Aryl hydrocarbon receptor. Description: Competitive binding affinity to aryl hydrocarbon receptor in Homo sapiens (human) Hep3B cells assessed as effect on betaNF-mediated DRE-driven luciferase expression at 10 uM after 6 hr by Western blot analysis relative to control. It counts as cell-based. To be noted: hep 3b2, 6 h.
In series [12] the target is T1, Aryl hydrocarbon receptor. Description: Binding affinity to aryl hydrocarbon receptor in Homo sapiens (human) Hep3B cells assessed as upregulation of DRE-driven luciferase expression at 10 uM after 6 hr by Western blot analysis. It counts as cell-based. The settings on record: hep 3b2, 6 h.

Turning to `CN(C)c1ccc(/N=N/c2ccc(C(=O)NCCOCCOCCOCCOCc3ccc(-c4cc(=O)c5c(ccc6ccccc65)o4)cc3)cc2)cc1`, the Activity result is reported as “Non-toxic” in series [1]; 29% in [2]; “Active” in [4]; 18% in series [6]; 24% in [7]. In addition, in series [3], the fold induction at 6 h, 10 µM turned out to be 14. Further, the “fold change (FC)” value in series [5] stood at 23.
With `O=c1cc(-c2ccccc2)oc2ccc3ccccc3c12` [BETA-NAPHTHOFLAVONE], the fold induction at 6 h, 10 µM in series [3] stood at 75. The outcome in series [8] was Active.
For `CN(C)c1ccc(/N=N/c2ccc(C(=O)NCCOCCOCCOCCOCCOCCOCCOCCOCc3ccc(-c4cc(=O)c5c(ccc6ccccc65)o4)cc3)cc2)cc1`, the Activity entry in series [1] was “Toxic”.
Consider `Cc1ccc2cc3c(ccc4ccccc43)c3c2c1CC3` [3-METHYLCHOLANTHRENE], for which the Activity entry in series [9] is recorded as “Active”; in series [10] it was “Not Active”.
For the compound `CN(C)c1ccc(/N=N/c2ccc(C(=O)NCCOCCOCCOCCO)cc2)cc1`, the Activity result was “Not Active” in series [11]; “Not Active” in series [12]; “Not Active” in series [4]; 13% in [6]; 16% in [7].

For the origin of these results see ChEMBL document CHEMBL3045382, “Synthesis of a ligandquencher conjugate for the ligand binding study of the aryl hydrocarbon receptor using a FRET assay” (Med Chem Res, 2012).
